In patent US11518758B2, “Heteroarylaminopyrimidine amide autophagy inhibitors and methods of use thereof” (Deciphera Pharmaceuticals, LLC, priority 2019, dated 2022):

Assays:
[1] = test system: phospho-Serine 318 ATG13 (pATG13), ULK kinase substrate, in A549 (KRAS mutant) cells; test: pATG13 levels of mutant KRas A549 cells after treatment with ULK inhibitors in combination with trametinib (ELISA); type: cell-based, human; settings: with 250 nM trametinib
Outline: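 A549 cells grown overnight were treated overnight at 37 °C with a dose response of test compound plus 250 nM trametinib (final) or DMSO. Lysates were assayed by sandwich ELISA, with total ATG13 capture and biotinylated pS318-ATG13 detection read at 450 nm minus 540 nm, giving % phosphorylation against control and IC50.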

[2] = test system: phospho-Serine 318 ATG13 (pATG13) in HCT-116 cells; test: pATG13 levels of mutant KRas HCT-116 cells after treatment with ULK inhibitors in combination with trametinib (ELISA); type: cell-based, human
Description: Example 179. pATG13 Levels of Mutant KRas HCT-116 Cells after Treatment with ULK Inhibitors in Combination with Trametinib
(§1) HCT-116 human colon cancer cells (10000 cells/well) were added to a 384-well tissue-culture treated plate in 50 μL of pre-warmed DMEM medium supplemented with 10% characterized fetal bovine serum (Invitrogen, Carlsbad, Calif.), 100 units/mL penicillin G, and 100 μg/mL streptomycin and allowed to grow overnight at 37° C., 5% CO2, and 95% humidity. The following day, 10 μL of media containing trametinib or DMSO as a control was added to wells. The final concentration of trametinib in wells was 250 nM. A dose response of a test compound (0.6 μL per well) was added. DMSO (0.6 μL) was added to control wells. The plate was briefly shaken to mix wells and then incubated at 37° C. overnight. The next day, the media was aspirated and cells were washed with Dulbecco's Phosphate Buffered Saline (Gibco). Cells were lysed using MPER lysis buffer (Pierce, Rockford, Ill.) containing Halt Phosphatase and Protease Inhibitors (Pierce, Rockford, Ill.) and Phosphatase inhibitor cocktail 2 (Sigma, St. Louis, Mo.) at 4° C. for 10 minutes with shaking.
(§2) Cellular levels of phospho-Serine 318 ATG13 (pATG13) were measured via an ELISA method. Total ATG13 Antibody (Cell Signaling Cat #13273) was used to coat the wells. The plate was incubated at 4° C. overnight and washed with ELISA wash buffer (Biolegend Cat #421601). The wells were then blocked with assay diluent (Biolegend Cat #421203) for 1 hour at room temperature. Plate wells were washed with ELISA wash buffer. Cell lysate was added to wells and incubated at room temperature for 2 hours. Plate wells were washed with ELISA wash buffer. Biotinylated pS318-ATG13 antibody (Rockland Immunochemicals Cat #600-401-C49) was diluted in assay diluent and added to each well and incubated at room temperature for 1 hour. Plate wells were washed with ELISA wash buffer. Streptavidin linked to horseradish peroxidase (Thermo Fisher Cat #21140) was diluted in assay diluent and added to each well and incubated at room temperature for 1 hour. Plate wells were washed with ELISA wash buffer. High sensitivity TMB substrate (Biolegend Cat #421101) was added to each well and incubated at room temperature for 20 minutes. The reaction was stopped with 2N Sulfuric Acid. The plate was analyzed at on a plate reader measuring absorbance at 450 nm and 540 nm (background). Signal was calculated by first subtracting the background absorbance at 540 nm from the absorbance at 450 nm for each well. Next, the background corrected absorbance at 450 nm from blank wells was subtracted from test wells. Data was compared to control wells to determine % ATG13 phosphorylation. GraphPad Prism was used to calculate IC50 values.

[3] = molecular target: T1, ULK1 kinase (Homo sapiens, UniProt O75385); test: Biochemical assay for ULK1.2 (coupled pyruvate kinase/lactate dehydrogenase assay); settings: 19 nM ULK1 (Eurofins), myelin basic protein, 1 mM ATP
T1 construct: purchased Eurofins 14-959
T1 sequence (O75385 with tags, fused parts or gaps): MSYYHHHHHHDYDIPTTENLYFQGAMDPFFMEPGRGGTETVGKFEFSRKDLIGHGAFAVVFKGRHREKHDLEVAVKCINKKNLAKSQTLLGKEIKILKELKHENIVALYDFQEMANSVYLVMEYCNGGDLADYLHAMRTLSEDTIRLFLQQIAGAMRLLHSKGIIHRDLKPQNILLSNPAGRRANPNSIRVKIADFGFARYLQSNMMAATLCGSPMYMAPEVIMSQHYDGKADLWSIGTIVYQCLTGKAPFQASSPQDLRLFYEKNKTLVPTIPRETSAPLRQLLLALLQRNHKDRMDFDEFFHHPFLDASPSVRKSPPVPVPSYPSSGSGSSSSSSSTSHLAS
Outline: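 NADH-coupled PK/LDH read-out at 340 nm, run with 19 nM ULK1, 0.25 mg/mL myelin basic protein and 1 mM ATP. Buffer was 100 mM Tris pH 7.5 with 15 mM MgCl2 and 1% DMSO final. Monitoring was continuous for 6 hours at 30° C; rates from the 2-3 h window were converted to percent inhibition and fitted to a four-parameter curve for IC50.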

[4] = molecular target: T2, ULK2 kinase (Homo sapiens, UniProt Q8IYT8); test: Biochemical assay for ULK2 (coupled pyruvate kinase/lactate dehydrogenase assay); settings: 9.7 nM ULK2 (Eurofins), myelin basic protein, 1 mM ATP; read-out: ULK2.2
T2 construct: purchased Eurofins 14-772
Description: Example 176. Biochemical Assay for ULK2
Activity of ULK2 kinase was determined spectroscopically using a coupled pyruvate kinase/lactate dehydrogenase assay that continuously monitors the ATP hydrolysis-dependent oxidation of NADH (e.g., Schindler et al. Science (2000) 289: 1938-1942). Assays were conducted in 384-well plates (100 uL final volume) using 9.7 nM ULK2 (Eurofins CAT #14-772), 0.25 mg/mL myelin basic protein, 1.5 units pyruvate kinase, 2.1 units lactate dehydrogenase, 1 mM phosphoenol pyruvate, 0.28 mM NADH and 1 mM ATP in assay buffer (100 mM Tris, pH 7.5, 15 mM MgCl2, 0.5 mM DTT, 0.1% octyl-glucoside, 0.002% (w/v) BSA, and 0.002% Triton X-100). Inhibition of ULK2 was measured by adding serial diluted test compound (final assay concentration of 1% DMSO). A decrease in absorption at 340 nm was monitored continuously for 6 hours at 30° C. on a multi-mode microplate reader (BioTek). The reaction rate was calculated using the 2-3 h time frame. The reaction rate at each concentration of compound was converted to percent inhibition using controls (i.e. reaction with no test compound and reaction with a known inhibitor) and IC50 values were calculated by fitting a four-parameter sigmoidal curve to the data using Prism (GraphPad software).

[5] = test system: phospho-Serine 318 ATG13 (pATG13) in MiaPaCa-2 cells; test: pATG13 levels of mutant KRas MiaPaCa-2 cells after treatment with ULK inhibitors in combination with trametinib (ELISA); type: cell-based, human
Description: Example 178. pATG13 Levels of Mutant KRas MiaPaCa-2 Cells after Treatment with ULK Inhibitors in Combination with Trametinib
as §1, with “MiaPaCa-2” for “HCT-116”, “pancreatic” for “colon”, “G,” for “G, and”, “streptomycin, and 2.5% Horse Serum” for “streptomycin”
as §2

[6] = molecular target: T3, ULK1 kinase (Homo sapiens, UniProt O75385, E37A/K38A); test: Biochemical assay for ULK1.3 (coupled pyruvate kinase/lactate dehydrogenase assay); settings: 0.1 nM ULK1 (from Beryllium), peptide substrate, 1 mM ATP
T3 construct: (residues 1-283; ID NO: 2); purchased Beryllium
T3 sequence (O75385 1-283 E37A/K38A): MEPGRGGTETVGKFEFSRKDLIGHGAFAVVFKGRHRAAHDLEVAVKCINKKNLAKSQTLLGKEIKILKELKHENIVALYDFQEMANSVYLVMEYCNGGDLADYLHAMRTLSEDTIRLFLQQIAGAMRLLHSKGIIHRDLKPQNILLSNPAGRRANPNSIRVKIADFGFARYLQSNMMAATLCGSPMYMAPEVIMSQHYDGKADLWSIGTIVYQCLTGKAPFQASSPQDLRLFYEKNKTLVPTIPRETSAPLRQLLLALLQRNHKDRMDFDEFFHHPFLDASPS
Description: Example 175. Biochemical Assay for ULK1.3
Activity of ULK1 kinase was determined spectroscopically using a coupled pyruvate kinase/lactate dehydrogenase assay that continuously monitors the ATP hydrolysis-dependent oxidation of NADH (e.g., Schindler et al. Science (2000) 289: 1938-1942). Assays were conducted in 384-well plates (100 uL final volume) using 0.1 nM ULK1 (from Beryllium), 0.075 mM peptide substrate (YANWLAASIYLDGKKK (SEQ ID NO: 5)), 1.5 units pyruvate kinase, 2.1 units lactate dehydrogenase, 1 mM phosphoenol pyruvate, 0.28 mM NADH and 1 mM ATP in assay buffer (100 mM Tris, pH 7.5, 15 mM MgCl2, 0.5 mM DTT, 0.004% (w/v) BSA, and 0.004% Triton X-100). Inhibition of ULK1 was measured by adding serial diluted test compound (final assay concentration of 1% DMSO). A decrease in absorption at 340 nm was monitored continuously for 6 hours at 30° C. on a multi-mode microplate reader (BioTek). The reaction rate was calculated using the 2-3 h time frame. The reaction rate at each concentration of compound was converted to percent inhibition using controls (i.e. reaction with no test compound and reaction with a known inhibitor) and IC50 values were calculated using software routines in Prism (GraphPad software).

[7] = molecular target: T4, LRRK2 kinase (Homo sapiens, UniProt Q5S007); test: Biochemical assay for LRRK2 (coupled pyruvate kinase/lactate dehydrogenase assay); settings: 26.4 nM LRRK2 (residues 970-2528), 0.1 mM peptide substrate, 1 mM ATP
T4 construct: purchased Thermo Fisher
T4 sequence (Q5S007 with tags, fused parts or gaps): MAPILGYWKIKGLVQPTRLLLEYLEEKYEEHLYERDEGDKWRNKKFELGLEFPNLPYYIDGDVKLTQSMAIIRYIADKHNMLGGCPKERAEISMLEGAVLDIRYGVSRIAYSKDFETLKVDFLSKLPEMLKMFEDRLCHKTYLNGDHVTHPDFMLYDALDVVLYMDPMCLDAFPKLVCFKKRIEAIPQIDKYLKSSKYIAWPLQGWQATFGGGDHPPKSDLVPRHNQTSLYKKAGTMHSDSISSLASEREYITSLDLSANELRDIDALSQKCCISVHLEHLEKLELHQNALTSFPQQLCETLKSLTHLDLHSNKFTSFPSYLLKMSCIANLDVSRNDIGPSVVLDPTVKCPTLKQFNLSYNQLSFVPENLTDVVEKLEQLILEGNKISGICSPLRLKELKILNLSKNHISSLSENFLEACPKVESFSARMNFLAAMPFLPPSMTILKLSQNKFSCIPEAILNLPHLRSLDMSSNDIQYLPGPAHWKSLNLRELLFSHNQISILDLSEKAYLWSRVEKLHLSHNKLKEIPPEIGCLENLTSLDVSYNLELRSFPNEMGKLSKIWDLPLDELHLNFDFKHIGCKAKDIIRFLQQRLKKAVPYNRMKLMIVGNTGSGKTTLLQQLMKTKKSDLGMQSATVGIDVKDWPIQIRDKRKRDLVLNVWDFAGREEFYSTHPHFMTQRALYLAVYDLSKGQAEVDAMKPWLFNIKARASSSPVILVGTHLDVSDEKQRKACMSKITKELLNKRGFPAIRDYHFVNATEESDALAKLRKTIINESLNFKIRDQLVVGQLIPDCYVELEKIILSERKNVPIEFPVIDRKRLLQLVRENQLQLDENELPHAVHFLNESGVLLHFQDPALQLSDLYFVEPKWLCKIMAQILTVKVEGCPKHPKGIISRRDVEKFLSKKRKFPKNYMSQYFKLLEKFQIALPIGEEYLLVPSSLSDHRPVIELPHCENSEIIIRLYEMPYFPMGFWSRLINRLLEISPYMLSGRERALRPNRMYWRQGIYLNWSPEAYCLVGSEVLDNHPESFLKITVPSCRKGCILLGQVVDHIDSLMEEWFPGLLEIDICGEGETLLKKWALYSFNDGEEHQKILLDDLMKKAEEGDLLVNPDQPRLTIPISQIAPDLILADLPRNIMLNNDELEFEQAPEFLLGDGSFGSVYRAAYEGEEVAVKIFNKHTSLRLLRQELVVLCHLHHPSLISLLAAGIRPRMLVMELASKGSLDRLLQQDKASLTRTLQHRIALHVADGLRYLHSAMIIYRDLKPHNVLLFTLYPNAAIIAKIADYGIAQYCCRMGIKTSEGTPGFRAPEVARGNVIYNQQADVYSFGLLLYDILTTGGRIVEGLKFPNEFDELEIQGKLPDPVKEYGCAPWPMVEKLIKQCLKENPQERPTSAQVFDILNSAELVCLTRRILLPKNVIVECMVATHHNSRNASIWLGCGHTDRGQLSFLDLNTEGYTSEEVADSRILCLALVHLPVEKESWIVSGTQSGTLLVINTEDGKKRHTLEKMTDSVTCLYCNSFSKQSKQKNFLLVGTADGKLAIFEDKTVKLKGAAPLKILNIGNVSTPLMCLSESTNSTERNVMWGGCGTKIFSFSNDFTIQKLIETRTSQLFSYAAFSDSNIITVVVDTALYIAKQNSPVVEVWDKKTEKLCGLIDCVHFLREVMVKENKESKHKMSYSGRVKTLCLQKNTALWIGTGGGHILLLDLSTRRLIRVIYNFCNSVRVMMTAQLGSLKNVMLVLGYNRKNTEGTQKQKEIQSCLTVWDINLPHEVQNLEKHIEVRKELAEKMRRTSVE

T2 sequence (Q8IYT8 with tags, fused parts or gaps): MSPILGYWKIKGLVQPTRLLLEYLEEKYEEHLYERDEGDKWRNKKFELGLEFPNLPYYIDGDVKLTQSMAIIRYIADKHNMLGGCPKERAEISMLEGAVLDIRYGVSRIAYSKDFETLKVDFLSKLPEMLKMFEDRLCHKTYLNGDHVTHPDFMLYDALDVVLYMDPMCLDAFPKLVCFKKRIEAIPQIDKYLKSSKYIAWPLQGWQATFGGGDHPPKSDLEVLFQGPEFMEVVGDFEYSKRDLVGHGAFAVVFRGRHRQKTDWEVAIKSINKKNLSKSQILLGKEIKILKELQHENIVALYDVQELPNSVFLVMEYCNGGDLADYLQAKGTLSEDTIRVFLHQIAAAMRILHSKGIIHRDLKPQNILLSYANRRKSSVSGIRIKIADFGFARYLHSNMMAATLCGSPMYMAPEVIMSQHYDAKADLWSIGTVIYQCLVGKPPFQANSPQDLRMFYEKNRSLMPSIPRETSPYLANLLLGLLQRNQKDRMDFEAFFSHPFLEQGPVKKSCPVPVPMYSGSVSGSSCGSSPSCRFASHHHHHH

Row | SMILES | IC50 [1] [nM] | IC50 [2] [nM] | IC50 [3] [nM] | IC50 [4] [nM] | IC50 [5] [nM] | IC50 [6] [nM] | IC50 [7] [nM]
1 | Cc1nn(C2CCNCC2)cc1Nc1ncc(C(F)(F)F)c(NCCCN2CCCCC2=O)n1 [Example 14] | 300 to 600 | 10 to 100 | 1 to 25 | 1 to 25 |  |  | 
2 | Cc1nn([C@@H]2CCNC2)cc1Nc1ncc(Br)c(NCCCN2CCCCC2=O)n1 [Example 60] | > 600 |  | 25 to 100 | 100 to 500 | 10 to 100 |  | 
3 | CCN1CC[C@H](n2cc(Nc3ncc(C(F)(F)F)c(NCCCN4CCCCC4=O)n3)c(C)n2)C1 [Example 66] | 100 to 300 |  | 25 to 100 | 100 to 500 | 100 to 300 |  | 
4 | CCc1nn(C2CCN(C)CC2)cc1Nc1ncc(C(F)(F)F)c(NCCCN2CCCOCC2=O)n1 [Example 109] | 100 to 300 | 10 to 100 | 25 to 100 |  | 100 to 300 |  | 
5 | Cc1nn(C2CCN(C(C)C)CC2)cc1Nc1ncc(Br)c(NCCCN2CCCOC2=O)n1 [Example 71] | > 600 |  |  |  | 100 to 300 | 25 to 100 | 
6 | Cc1nn(C2CCN(C(C)C)CC2)cc1Nc1ncc(Cl)c(NCCCN2CCCOC2=O)n1 [Example 72] | > 600 |  |  |  | 100 to 300 | 25 to 100 | 
7 | Cc1nn([C@@H]2CCN(C)C2)cc1Nc1ncc(Br)c(NCCCN2CCOCCC2=O)n1 [Example 138] | 300 to 600 |  |  |  | 100 to 300 | 25 to 100 | 
8 | CCc1nn(C2CCN(CC)CC2)cc1Nc1ncc(Br)c(NCCCN2CCCCC2=O)n1 [Example 54] | 100 to 300 |  | 25 to 100 |  | 100 to 300 |  | 
9 | Cc1nn([C@@H]2CCN(C)C2)cc1Nc1ncc(Br)c(NCCCN2CCCCC2=O)n1 [Example 44] | 100 to 300 |  | 25 to 100 | 100 to 500 | 100 to 300 |  | 
10 | Cc1nn(C2CCN(C)C2)cc1Nc1ncc(Br)c(NCCCN2CCCOCC2=O)n1 (centres unmarked) [Example 118] | 300 to 600 |  |  |  | 100 to 300 | 25 to 100 | 1 to 100
11 | CN1CCC(n2ccc(Nc3cc(NCCCN4CCCCC4=O)c(C(F)(F)F)cn3)n2)CC1 [Example 173] | 10 to 100 |  |  |  | 10 to 100 | 1 to 25 | 
12 | O=C1CCCCN1CCCNc1nc(Nc2cnn(C3CCNCC3)c2)ncc1C(F)(F)F [Example 7] | 10 to 100 | 100 to 300 | 1 to 25 | 1 to 25 |  |  | 
13 | CCN1CCC(n2cc(Nc3cc(NCCCN4CCCCC4=O)c(C(F)(F)F)cn3)cn2)CC1 [Example 16] | 100 to 300 |  | 25 to 100 | 100 to 500 | 10 to 100 |  | 
14 | Cc1nn(CCCN2CCCC2)cc1Nc1ncc(C(F)(F)F)c(NCCCN2CCCCCC2=O)n1 [Example 99] | 100 to 300 |  | 1 to 25 | 100 to 500 | 10 to 100 |  | 
15 | CCc1nn(C2CCNCC2)cc1Nc1ncc(C(F)(F)F)c(NCCCN2CCCCC2=O)n1 [Example 40] | 300 to 600 | 10 to 100 | 1 to 25 |  | 10 to 100 |  | 
16 | Cc1nn(CCCN2CCOCC2)cc1Nc1ncc(C(F)(F)F)c(NCCCN2CCOCCC2=O)n1 [Example 129] | > 600 |  | 100 to 500 | > 500 | > 600 |  | 
17 | Cc1nn([C@@H]2CCN(C)C2)cc1Nc1ncc(C(F)(F)F)c(NCCCN2CCOCCC2=O)n1 [Example 133] | 10 to 100 |  | 1 to 25 |  | 10 to 100 |  | 
